Laboratory results from patent US7728014B2, “Heteroaromatic compounds having sphingosine-1-phosphate (S1P) receptor agonist biological activity” (Allergan, Inc., priority 2006, dated 2010).
Each block holds one compound with its values, some of them ahead of it.

Columns and labels:
[1] = target: T1, human S1P3 receptor (Homo sapiens, UniProt Q99500); experiment: FLIPR Ca+2 response assay, activation of human S1P3 receptor in T24 cells; type: cell-based; details: for EC50: T24 cells stably expressing human S1P3, tested 0.61 nM to 10,000 nM; for Emax at 10 µM: T-24, receptor activity at highest dose (10 μM) relative to that induced by 5 nM sphingosine-1-phosphate, read-out: S1P3 (% efficacy)
T1 construct: expressed in transfected cells
Procedure: Compounds were also assessed for their ability to activate or block activation of the human S1P3 receptor in T24 cells stably expressing the human S1P3 receptor. Ten thousand cells/well were plated into 384-well poly-D-lysine coated plates one day prior to use. The growth media for the S1P3 receptor expressing cell line was McCoy's 5A medium supplemented with 10% charcoal-treated fetal bovine serum (FBS), 1% antibiotic-antimycotic and 400 μg/ml geneticin. On the day of the experiment, the cells were washed twice with Hank's Balanced Salt Solution supplemented with 20 mM HEPES (HBSS/Hepes buffer). The cells were then dye loaded with 2 uM Fluo-4 diluted in the HBSS/Hepes buffer with 1.25 mM Probenecid and incubated at 37° C. for 40 minutes. Extracellular dye was removed by washing the cell plates four times prior to placing the plates in the FLIPR (Fluorometric Imaging Plate Reader, Molecular Devices). Ligands were diluted in HBSS/Hepes buffer and prepared in 384-well microplates. The positive control, Sphingosine-1-Phosphate (S1P), was diluted in HBSS/Hepes buffer with 4 mg/ml fatty acid free bovine serum albumin. The FLIPR transferred 12.5 μl from the ligand microplate to the cell plate and took fluorescent measurements for 75 seconds, taking readings every second, and then for 2.5 minutes, taking readings every 10 seconds. Drugs were tested over the concentration range of 0.61 nM to 10,000 nM. Data for Ca^+2 responses were obtained in arbitrary fluorescence units and not translated into Ca^+2 concentrations. IC50 values were determined through a […] regression analysis using the Levenburg Marquardt algorithm. In Table 1, NA is defined as “Not Active,” ND is defined as “Not Determined,” % efficacy is defined as “percent of receptor activity induced by a test compound at the highest dose test (10 μM) relative to the receptor activity induced by 5 nM sphingosine-1-phosphate,” and % inhibition is defined as “percent of receptor activity induced by 5 nM sphingosine-1-phosphate that is inhibited by a test compound at the highest dose tested (10 μM).”

[2] = system: perfused porcine eyes; details: IOVS 45, 2263, 2004; cited from earlier work

T1 sequence (Q99500 whole entry): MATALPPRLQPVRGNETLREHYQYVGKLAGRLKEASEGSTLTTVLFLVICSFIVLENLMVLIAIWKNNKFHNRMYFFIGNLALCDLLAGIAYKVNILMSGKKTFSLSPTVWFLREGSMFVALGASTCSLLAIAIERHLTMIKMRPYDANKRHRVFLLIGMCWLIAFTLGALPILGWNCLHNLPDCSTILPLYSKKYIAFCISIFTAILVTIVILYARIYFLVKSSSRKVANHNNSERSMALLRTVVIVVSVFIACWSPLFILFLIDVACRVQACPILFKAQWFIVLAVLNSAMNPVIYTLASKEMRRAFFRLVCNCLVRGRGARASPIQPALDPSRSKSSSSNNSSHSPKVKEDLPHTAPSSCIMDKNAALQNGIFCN

Structure (SMILES): CCOC(=O)c1nnc(-c2ccc(CC)cc2)c(-c2ccccc2)n1 [Example 13, Ethyl 6-(4-Ethylphenyl)-5-phenyl-1,2,4-triazine-3-carboxylate]
- EC50 ([1]; NA = Not Active): 1600 nM
- Emax at 10 µM [1]: 57%

Structure (SMILES): CCOC(=O)c1nnc(-c2ccc(C)cc2)c(-c2ccccc2)n1 [Example 17, Ethyl 5-Phenyl-6-p-tolyl-1,2,4-triazine-3-carboxylate]
- EC50 ([1]; NA = Not Active): 2900 nM

Structure (SMILES): CCOC(=O)c1nnc(-c2ccccc2)c(-c2ccc(C(F)(F)F)cc2)n1 [Example 19, Ethyl 5-(4-Trifluoromethylphenyl)-6-phenyl-1,2,4-triazine-3-carboxylatate]
- Emax at 10 µM [1]: 34%

Structure (SMILES): CCOC(=O)c1ccc(-c2ccccc2)c(-c2ccccc2)n1 [Example 21, Ethyl 5,6-diphenylpyridine-2-carboxylate]
- EC50 ([1]; NA = Not Active): 1800 nM
- Emax at 10 µM [1]: 80%

Structure (SMILES): CCOC(=O)c1ccc(-c2ccc(C)cc2)c(-c2ccccc2)n1 [Example 22, Ethyl 6-Phenyl-5-p-tolyl-pyridine-2-carboxylate]
- EC50 ([1]; NA = Not Active): 740 nM
- Emax at 10 µM [1]: 32%

Structure (SMILES): CCOC(=O)c1ccc(-c2ccc(CC)cc2)c(-c2ccccc2)n1 [Example 23, Ethyl 5-(4-Ethyl-phenyl)-6-phenyl-pyridine-2-carboxylate]
- EC50 ([1]; NA = Not Active): 1400 nM
- Emax at 10 µM [1]: 82%

Structure (SMILES): CCCc1ccc(-c2ccc(C(=O)OCC)nc2-c2ccccc2)cc1 [Example 24, Ethyl 6-Phenyl-5-(4-propylphenyl)-pyridine-2-carboxylate]
- EC50 ([1]; NA = Not Active): 3100 nM
- Emax at 10 µM [1]: 50%

Structure (SMILES): CCOC(=O)c1ccc(-c2ccccc2)c(-c2ccc(C)cc2)n1 [Example 27, Ethyl 5-Phenyl-6-p-tolyl-pyridine-2-carboxylate]
- EC50 ([1]; NA = Not Active): 3700 nM
- Emax at 10 µM [1]: 46%

Structure (SMILES): CCOC(=O)c1ccc(-c2ccccc2)c(-c2ccc(CC)cc2)n1 [Example 28, Ethyl 6-(4-Ethylphenyl)-5-phenyl-pyridine-2-carboxylate]
- EC50 ([1]; NA = Not Active): 2900 nM
- Emax at 10 µM [1]: 48%

Structure (SMILES): COC(=O)c1ccc(-c2ccccc2)c(-c2ccccc2)n1 [Example 30, Methyl 5,6-diphenylpyridine-2-carboxylate]
- EC50 ([1]; NA = Not Active): 700 nM
- Emax at 10 µM [1]: 84%

Structure (SMILES): COC(=O)c1ccc(-c2ccc(C)cc2)c(-c2ccccc2)n1 [Example 31, Methyl 6-Phenyl-5-p-tolyl-pyridine-2-carboxylate]
- EC50 ([1]; NA = Not Active): 580 nM
- Emax at 10 µM [1]: 73%

Structure (SMILES): CCc1ccc(-c2ccc(C(=O)OC)nc2-c2ccccc2)cc1 [Example 32, Methyl 5-(4-Ethylphenyl)-6-phenyl-pyridine-2-carboxylate]
- EC50 ([1]; NA = Not Active): 570 nM
- Emax at 10 µM [1]: 88%

Structure (SMILES): CCCc1ccc(-c2ccc(C(=O)OC)nc2-c2ccccc2)cc1 [Example 33, Methyl 6-Phenyl-5-(4-propylphenyl)-pyridine-2-carboxylate]
- EC50 ([1]; NA = Not Active): 2900 nM
- Emax at 10 µM [1]: 81%

Structure (SMILES): COC(=O)c1ccc(-c2ccccc2)c(-c2ccc(C(F)(F)F)cc2)n1 [Example 35, Methyl 5-Phenyl-6-(4-trifluoromethylphenyl)-pyridine-2-carboxylate]
- EC50 ([1]; NA = Not Active): 2300 nM
- Emax at 10 µM [1]: 91%

Structure (SMILES): CCc1ccc(-c2ccc(C(=O)OC)nc2-c2ccncc2)cc1 [Example 52, Methyl 5-(4-Ethylphenyl)-6-(pyridin-4-yl)pyridine-2-carboxylate]
- EC50 [1]: 340 nM
- Emax at 10 µM [1]: 90%

Structure (SMILES): CCCCCCCCCCCCC/C=C/[C@@H](O)[C@@H](N)COP(=O)(O)O [Example S1P, Sphingosine-1-Phosphate]
- decrease of outflow facility [2]: > 30%

Next, values leading:

- EC50 ([1]; NA = Not Active): > 10000 nM
- Emax at 10 µM [1]: 51%
Structure (SMILES): CC(=O)c1ccc(-c2ccccc2)c(-c2ccccc2)n1 [Example 75, 1-(5,6-Diphenyl-pyridin-2-yl)-ethanone]

- EC50 ([1]; NA = Not Active): 3400 nM
- Emax at 10 µM [1]: 41%
Structure (SMILES): CCC(=O)c1ccc(-c2ccccc2)c(-c2ccccc2)n1 [Example 76, 1-(5,6-Diphenyl-pyridin-2-yl)-propan-1-one]

- EC50 ([1]; NA = Not Active): 2600 nM
- Emax at 10 µM [1]: 30%
Structure (SMILES): CCC(=O)c1ccc(-c2ccccc2)c(-c2ccc(C(F)(F)F)cc2)n1 [Example 79, 1-[5-Phenyl-6-(4-trifluoromethyl-phenyl)-pyridin-2-yl]-propan-1-one]

- EC50 ([1]; NA = Not Active): 2300 nM
- Emax at 10 µM [1]: 64%
Structure (SMILES): CCc1ccc(-c2nnc(C(=O)OC)nc2-c2ccccc2)cc1 [Example 89, Methyl 6-(4-Ethyl-phenyl)-5-phenyl-1,2,4-triazine-3-carboxylate]

- EC50 ([1]; NA = Not Active): 2400 nM
- Emax at 10 µM [1]: 59%
Structure (SMILES): COCc1ccc(-c2ccccc2)c(-c2ccccc2)n1 [Example 92, 6-Methoxymethyl-2,3-diphenyl-pyridine]

- EC50 ([1]; NA = Not Active): 4100 nM
- Emax at 10 µM [1]: 62%
Structure (SMILES): COC(=O)c1cnc(-c2ccccc2)c(-c2ccccc2)n1 [Example 93, Methyl 5,6-Diphenyl-pyrazine-2-carboxylate]

- EC50 ([1]; NA = Not Active): 2300 nM
- Emax at 10 µM [1]: 61%
Structure (SMILES): CC(=O)c1cnc(-c2ccccc2)c(-c2ccccc2)n1 [Example 94, 1-(5,6-Diphenyl-pyrazin-2-yl)-ethanone]

- EC50 ([1]; NA = Not Active): 4400 nM
- Emax at 10 µM [1]: 95%
Structure (SMILES): CCC(=O)c1cnc(-c2ccccc2)c(-c2ccccc2)n1 [Example 95, 1-(5,6-Diphenyl-pyrazin-2-yl)-propan-1-one]
